Laboratory results: PMC9157788, “Design, Synthesis, and Apoptosis-Promoting Effect Evaluation of Rhopaladins’ Analog 4-Arylidene-5-Oxopyrrolidine Derivatives” (Frontiers in Chemistry, 2022)

System: 7402 cells
Assay: Wound healing assay, 7402
Format: cell-based, human
Settings: 48 h
Method: The experimental procedures were performed according to conventional methods ([Kovaříková et al., 2014]). Hepatocarcinoma cells at the logarithmic growth stage were taken and inoculated into six-well plates with 2 × 10^4 cells/well. When the cell density is about 80%, the cell wound was scratched with pipette tips. Cells were then washed with PBS and added to the cell culture broth containing 1% serum with varying concentrations of RPDPRH (0 μM, 6.25, 12.5, and 25 μM) for 48 h. Pictures were taken at 0 and 48 h under a microscope (100×). Wound healing rate (%) = [(0 h scratch distance−48 h scratch distance)/0 h scratch distance] × 100%.

## O=C1/C(=C/c2ccc(Cl)cc2)CC(/C=C/c2ccc(Cl)cc2)(C(=O)NC2CCCCC2)N1c1ccc(F)cc1 (centres unmarked) [RPDPRH, (2E, 4E)-4-(4-chlorobenzylidene)-2-(4-chlorostyryl)-N-cyclohexyl-1-(4-fluorophenyl)-5-oxopyrrolidine-2-carboxamide]
7402, 25 μM, vs DMSO control, p < 0.01
  wound healing rate: reduced significantly
7402, 6.25, 12.5 and 25 μM
  wound healing rate: significantly reduced
